Results from paper PMC6009979, “The role of 5-arylalkylamino- and 5-piperazino- moieties on the 7-aminopyrazolo[4,3-d]pyrimidine core in affecting adenosine A1 and A2A receptor affinity and selectivity profiles” (Journal of Enzyme Inhibition and Medicinal Chemistry, 2017).

Assays:
hA1 AR = target: T1, hA1 AR (Homo sapiens, UniProt P30542); test: [3H]DPCPX competition binding to hA1 CHO membranes; conditions: for Ki: mean ± SEM of four assays, read-out: Binding experiments Ki hA1; for Binding experiments I% hA1: inhibition at 1 μM
T1 construct: expressed in transfected cells; host or cells: CHO cells (membranes)
T1 sequence (P30542 1-326): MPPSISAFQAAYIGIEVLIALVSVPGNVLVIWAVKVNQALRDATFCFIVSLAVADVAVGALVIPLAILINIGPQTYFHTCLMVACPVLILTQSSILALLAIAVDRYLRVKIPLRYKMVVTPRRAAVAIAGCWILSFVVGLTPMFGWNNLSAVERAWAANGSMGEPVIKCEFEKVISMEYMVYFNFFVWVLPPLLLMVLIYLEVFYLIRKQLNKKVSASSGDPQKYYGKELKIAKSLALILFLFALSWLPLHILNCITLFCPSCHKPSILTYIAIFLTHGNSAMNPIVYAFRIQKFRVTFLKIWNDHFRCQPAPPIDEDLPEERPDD

hA3 AR = target: T2, hA3 AR (Homo sapiens, UniProt P0DMS8); test: [125I]AB-MECA competition binding to hA3 CHO membranes; conditions: for inhibition at 1 µM / inhibition: read-out: Binding experiments I% hA3, inhibition at 1 μM; for Ki: mean ± SEM of four assays, read-out: Binding experiments Ki hA3
T2 construct: expressed in transfected cells; host or cells: CHO cells (membranes)
T2 sequence (P0DMS8 1-318): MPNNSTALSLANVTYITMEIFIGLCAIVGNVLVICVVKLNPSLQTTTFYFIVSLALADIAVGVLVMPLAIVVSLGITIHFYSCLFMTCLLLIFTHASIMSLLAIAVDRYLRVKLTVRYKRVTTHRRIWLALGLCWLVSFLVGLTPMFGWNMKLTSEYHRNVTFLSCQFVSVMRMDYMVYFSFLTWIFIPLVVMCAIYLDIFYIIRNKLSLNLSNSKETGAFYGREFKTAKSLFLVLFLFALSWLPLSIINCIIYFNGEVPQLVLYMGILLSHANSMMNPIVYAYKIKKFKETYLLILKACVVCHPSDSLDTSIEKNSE
Experimental: All synthesized compounds were tested to evaluate their affinity at human A1, A2A and A3 ARs. Displacement experiments of [^3H]DPCPX (1 nM) to hA1 CHO membranes (50 µg of protein/assay) and at least 6–8 different concentrations of antagonists for 120 min at 25 °C in 50 mM Tris-HCl buffer pH 7.4 were performed. Non-specific binding was determined in the presence 1 µM of DPCPX (≤10% of the total binding). […] Competition binding experiments to hA3 CHO membranes (50 µg of protein/assay) were performed incubating 0.5 nM [^125I]AB-MECA, 50 mM Tris-HCl buffer, 10 mM MgCl2, 1 mM EDTA, pH 7.4 and at least 6–8 different concentrations of examined ligands for 60 min at 37 °C[54]. Non-specific binding was defined as binding in the presence of 1 µM AB-MECA and was about 20% of total binding. Bound and free radioactivity were separated by filtering the assay mixture through Whatman GF/B glass fiber filters by using a Brandel cell harvester. The filter bound radioactivity was counted by Scintillation Counter Packard Tri Carb 2810 TR with an efficiency of 58%.
(§1) The protein concentration was determined according to a Bio-Rad method[56] with bovine albumin as a standard reference. Inhibitory binding constant (Ki) values were calculated from those of IC50 according to Cheng & Prusoff equation Ki = IC50/(1 + [C*]/KD*), where [C*] is the concentration of the radioligand and KD* its dissociation constant. A weighted non-linear least-squares curve fitting program LIGAND[58] was used for computer analysis of inhibition experiments. IC50 values obtained in cyclic AMP assay were calculated by non-linear regression analysis using the equation for a sigmoid concentration–response curve (Graph-PAD Prism, San Diego, CA).

hA2A AR = target: T3, hA2A AR (Homo sapiens, UniProt P29274); test: [3H]ZM241385 competition binding to hA2A CHO membranes; conditions: [3H]ZM241385, hA2A CHO; for Binding experiments I% hA2A: inhibition at 1 μM; for Ki: mean ± SEM of four assays, read-out: Binding experiments Ki hA2A
T3 construct: expressed in transfected cells; host or cells: CHO cells (membranes)
T3 sequence (P29274 whole entry): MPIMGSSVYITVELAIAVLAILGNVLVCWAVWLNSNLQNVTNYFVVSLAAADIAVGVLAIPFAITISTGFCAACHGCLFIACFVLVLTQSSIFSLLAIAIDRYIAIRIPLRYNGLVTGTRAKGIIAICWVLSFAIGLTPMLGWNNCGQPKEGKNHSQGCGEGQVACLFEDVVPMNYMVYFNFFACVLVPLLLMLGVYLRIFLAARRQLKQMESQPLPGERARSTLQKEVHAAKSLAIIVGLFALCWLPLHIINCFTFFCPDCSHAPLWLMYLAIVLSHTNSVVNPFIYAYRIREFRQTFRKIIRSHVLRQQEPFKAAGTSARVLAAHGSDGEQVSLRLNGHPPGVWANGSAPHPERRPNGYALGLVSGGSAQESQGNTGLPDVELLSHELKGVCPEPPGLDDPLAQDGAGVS

hA2B AR = target: T4, hA2B AR (Homo sapiens, UniProt P29275); test: cAMP assay in hA2B CHO cells stimulated by 200 nM NECA; format: cell-based; conditions: read-out: cAMP assays I% hA2B
T4 construct: expressed in transfected cells; host or cells: CHO cells
T4 sequence (P29275 1-332): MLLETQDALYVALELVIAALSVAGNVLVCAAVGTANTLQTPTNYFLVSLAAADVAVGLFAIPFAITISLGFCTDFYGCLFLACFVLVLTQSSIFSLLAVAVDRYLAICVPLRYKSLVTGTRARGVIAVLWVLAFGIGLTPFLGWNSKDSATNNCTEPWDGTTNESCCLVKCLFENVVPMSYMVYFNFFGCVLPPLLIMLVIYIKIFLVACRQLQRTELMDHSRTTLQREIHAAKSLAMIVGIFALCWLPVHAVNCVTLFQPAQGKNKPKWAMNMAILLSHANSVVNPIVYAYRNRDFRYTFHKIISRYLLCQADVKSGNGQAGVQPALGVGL
Experimental: CHO cells transfected with hA2B AR subtypes were washed with phosphate-buffered saline, diluted trypsin and centrifuged for 10 min at 200 g. The cells (1 × 10^6 cells/assay) were suspended in 0.5 ml of incubation mixture (mM): NaCl 15, KCl 0.27, NaH2PO4 0.037, MgSO4 0.1, CaCl2 0.1, Hepes 0.01, MgCl2 1, glucose 0.5, pH 7.4 at 37 °C, 2 IU/ml adenosine deaminase and 4–(3-butoxy-4-methoxybenzyl)-2-imidazolidinone (Ro 20–1724) as phosphodiesterase inhibitor and preincubated for 10 min in a shaking bath at 37 °C. The potency of antagonists to the A2B AR was determined by the inhibition of NECA (200 nM)-induced cyclic AMP production. The reaction was terminated by the addition of cold 6% trichloroacetic acid (TCA). The TCA suspension was centrifuged at 2000 g for 10 min at 4 °C and the supernatant was extracted four times with water saturated diethyl ether. The final aqueous solution was tested for cyclic AMP levels by a competition protein binding assay. Samples of cyclic AMP standard (0–10 pmoles) were added to each test tube containing [^3H] cyclic AMP and incubation buffer (trizma base 0.1 M, aminophylline 8.0 mM, 2-mercaptoethanol 6.0 mM, pH 7.4). The binding protein prepared from beef adrenals was added to the samples previously incubated at 4 °C for 150 min, and, after the addition of charcoal, was centrifuged at 2000 g for 10 min. The clear supernatant was counted in a Scintillation Counter Packard Tri Carb 2810 TR with an efficiency of 58%.
as §1

SMILES	Ki (hA1 AR)	inhibition at 1 µM (hA3 AR)	Binding experiments I% hA2A (hA2A AR)	inhibition at 1 µM (hA2B AR)	Ki (hA3 AR)	Ki (hA2A AR)	Binding experiments I% hA1 (hA1 AR)	inhibition (hA3 AR)
Nc1nc(Nc2ccc(O)cc2)nc2cn(-c3ccccc3)nc12 [Compound 4, 7-Amino-5-(4-hydroxyphenyl)amino-2-phenyl-2H-pyrazolo[4,3-d]pyrimidine]	481 ± 42 nM	8%	40%	10%				
Nc1nc(NCc2ccccc2)nc2cn(-c3ccccc3)nc12 [Compound 5, 7-Amino-5-benzylamino-2-phenyl-2H-pyrazolo[4,3-d]pyrimidine]	25 ± 3 nM			2%	28 ± 3 nM	123 ± 11 nM		
CC(C)(C)CC(=O)N1CCN(c2nc(N)c3nn(-c4ccccc4)cc3n2)CC1 [Compound 23, 7-Amino-2-phenyl-5-(4-(3,3-dimethylbutiryl)piperazin-1-yl)-2H-pyrazolo[4,3-d]pyrimidine]			2%	2%			29%	1%
Nc1nc(N2CCN(Cc3ccco3)CC2)nc2cn(-c3ccccc3)nc12 [Compound 22]	92 ± 8 nM		38%	16%				5%
Nc1nc(NCCc2ccccc2)nc2cn(-c3ccccc3)nc12 [Compound 6, 7-Amino-5-(2-phenylethyl)amino-2-phenyl-2H-pyrazolo[4,3-d]pyrimidine]	11.5 ± 1.2 nM	38%	40%	1%				
Cn1cc2nc(NCc3ccccc3)nc(N)c2n1 [Compound 9, 7-Amino-5-benzylamino-2-methyl-2H-pyrazolo[4,3-d]pyrimidine]		20%	1%	1%			9%	
Nc1nc(N2CCN(Cc3ccccc3)CC2)nc2cn(-c3ccccc3)nc12 [Compound 16, 7-Amino-5-(4-benzylpiperazin-1-yl)-2-phenyl-2H-pyrazolo[4,3-d]pyrimidine]	162 ± 14 nM		1%	1%				1%
Nc1nc(N2CCN(Cc3ccc(F)cc3Cl)CC2)nc2cn(-c3ccccc3)nc12 [Compound 19, 7-Amino-5-(4-(2-chloro-4-fluoro)benzylpiperazin-1-yl)-2-phenyl-2H-pyrazolo[4,3-d]pyrimidine]	193 ± 17 nM		29%	2%				1%
CC(C)(C)OC(=O)N1CCN(c2nc(N)c3nn(-c4ccccc4)cc3n2)CC1 [Compound 21, Tert-butyl 4-(7-amino-2-phenyl-2H-pyrazolo[4,3-d]pyrimidin-5-yl)piperazine 1-carboxylate]	615 ± 49 nM		33%	1%				21%
Nc1nc(NCCc2ccc(O)cc2)nc2cn(-c3ccccc3)nc12 [Compound 12, 7-Amino-5-(4-hydroxyphenethyl)amino-2-phenyl-2H-pyrazolo[4,3-d]pyrimidine]		1%		1%		150 ± 14 nM	27%	
Nc1nc(NCCCc2ccccc2)nc2cn(-c3ccccc3)nc12 [Compound 7, 7-Amino-5-(3-phenylpropyl)-2-phenyl-2H-pyrazolo[4,3-d]pyrimidines]	785 ± 72 nM	24%	29%	1%				
COc1ccc(Nc2nc(N)c3nn(-c4ccccc4)cc3n2)cc1 [Compound 2, 7-Amino-5-(4-methoxyphenyl)amino-2-phenyl-2H-pyrazolo[4,3-d]pyrimidine]			8%	1%	27 ± 3 nM		33%	
Cn1cc2nc(Nc3ccccc3)nc(N)c2n1 [Compound 8, 7-Amino-2-methyl-5-phenylamino-2H-pyrazolo[4,3-d]pyrimidine]		1%	4%	1%			1%	
Nc1nc(N2CCN(Cc3c(F)cc(F)cc3F)CC2)nc2cn(-c3ccccc3)nc12 [Compound 18, 7-Amino-5-(4-(2,4,6-trifluoro)benzylpiperazin-1-yl)-2-phenyl-2H-pyrazolo[4,3-d]pyrimidine]	204 ± 18 nM		34%	1%				39%
Nc1nc(N2CCN(C(=O)Cc3ccccc3)CC2)nc2cn(-c3ccccc3)nc12 [Compound 24, 7-Amino-2-phenyl-5-(4-phenylacetylpiperazin-1-yl)-2H-pyrazolo[4,3-d]pyrimidine]	429 ± 36 nM		3%	3%				1%
COc1ccc(CCNc2nc(N)c3nn(-c4ccccc4)cc3n2)cc1 [Compound 11, 7-Amino-5-[2–(4-methoxyphenyl)ethyl]amino-2-phenyl-2H-pyrazolo[4,3-d]pyrimidine]	153 ± 11 nM	19%	26%	1%				
Nc1nc(N2CCN(CCc3ccccc3)CC2)nc2cn(-c3ccccc3)nc12 [Compound 17, 7-Amino-5-(4-phenylethylpiperazin-1-yl)-2-phenyl-2H-pyrazolo[4,3-d]pyrimidine]	518 ± 42 nM		40%	1%				40%
Nc1nc(N2CCN(C(=O)c3ccco3)CC2)nc2cn(-c3ccccc3)nc12 [Compound 20]	580 ± 47 nM		16%	2%				13%
Nc1nc(Nc2ccccc2)nc2cn(-c3ccccc3)nc12 [Compound 1, 7-Amino-5-phenylamino-2-phenyl-2H-pyrazolo[4,3-d]pyrimidine]	67 ± 5 nM			2%	13 ± 2 nM	412 ± 37 nM		
